Square brackets hold non-standard residues; d marks the D form. Peptide text beside a SMILES is read from it. Gly(N-(CH2)6NH2) = NCCCCCCNCC(=O)O; Gly(N-2-aminoethyl) = NCCNCC(=O)O; Nspe = C[C@H](NCC(=O)O)c1ccccc1; Nphe = O=C(O)CNCc1ccccc1; Nlys = NCCCCNCC(=O)O
Key:
[1] = test system: E. coli, P. aeruginosa, S. aureus and S. epidermidis; assay type: cell-based
How it was run: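 Broth microdilution in Iso-sensitest broth: overnight cultures adjusted to A650nm 0.07 (0.5 McFarland), diluted ten-fold, and mixed 1:1 with 2-fold serial peptoid dilutions (final 2–100 µM, from DMSO stock). Plates were incubated 16 h at 37 °C with shaking and growth read by absorbance, in triplicate.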

[2] = design: method as in PMID 18287037; conditions: cited from earlier work
[3] = test system: NIH 3T3 murine fibroblasts; design: method as in PMID 26849681; conditions: in vitro mammalian assays; cited from earlier work

Structure (SMILES)	MICs against the bacteria tested [1] [µM]	50% haemolytic dose (HD50) [2] [µM]	observed toxicity against NIH 3T3 murine fibroblasts [3] [µM]
C[C@@H](c1ccccc1)N(CC(N)=O)C(=O)CN(C(=O)CN(CCCCN)C(=O)CN(C(=O)CN(C(=O)CNCCCCN)[C@@H](C)c1ccccc1)[C@@H](C)c1ccccc1)[C@@H](C)c1ccccc1 [Peptoid 15, (NLysNspeNspe)2] (H-[Nlys][Nspe][Nspe][Nlys][Nspe][Nspe]-NH2)	100		
C[C@@H](c1ccccc1)N(CC(N)=O)C(=O)CN(C(=O)CN(CCN)C(=O)CN(C(=O)CN(C(=O)CNCCN)[C@@H](C)c1ccccc1)[C@@H](C)c1ccccc1)[C@@H](C)c1ccccc1 [Peptoid 18, (NaeNspeNspe)2]	100		
C[C@@H](c1ccccc1)N(CC(N)=O)C(=O)CN(C(=O)CN(CCCCCCN)C(=O)CN(C(=O)CN(C(=O)CNCCCCCCN)[C@@H](C)c1ccccc1)[C@@H](C)c1ccccc1)[C@@H](C)c1ccccc1 [Peptoid 12, (NahNspeNspe)2]	100		
NCCNCC(=O)N(CC(=O)N(CC(=O)N(CCN)CC(=O)N(CC(=O)N(CC(N)=O)Cc1ccccc1)Cc1ccccc1)Cc1ccccc1)Cc1ccccc1 [Peptoid 9, (NaeNpheNphe)2] (H-[Gly(N-2-aminoethyl)][Nphe][Nphe][Gly(N-2-aminoethyl)][Nphe][Nphe]-NH2)	100		
NCCCCCCNCC(=O)N(CC(=O)N(CC(=O)N(CCCCCCN)CC(=O)N(CC(=O)N(CC(N)=O)Cc1ccccc1)Cc1ccccc1)Cc1ccccc1)Cc1ccccc1 [Peptoid 3, (NahNpheNphe)2] (H-[Gly(N-(CH2)6NH2)][Nphe][Nphe][Gly(N-(CH2)6NH2)][Nphe][Nphe]-NH2)	100		
C[C@@H](c1ccccc1)N(CC(N)=O)C(=O)CN(C(=O)CN(CCCCN)C(=O)CN(C(=O)CN(C(=O)CN(CCCCN)C(=O)CN(C(=O)CN(C(=O)CN(CCCCN)C(=O)CN(C(=O)CN(C(=O)CNCCCCN)[C@@H](C)c1ccccc1)[C@@H](C)c1ccccc1)[C@@H](C)c1ccccc1)[C@@H](C)c1ccccc1)[C@@H](C)c1ccccc1)[C@@H](C)c1ccccc1)[C@@H](C)c1ccccc1 [Peptoid 13, (NLysNspeNspe)4] (H-[Nlys][Nspe][Nspe][Nlys][Nspe][Nspe][Nlys][Nspe][Nspe][Nlys][Nspe][Nspe]-NH2)		100	5.1
NCCCCNCC(=O)N(CC(=O)N(CC(=O)N(CCCCN)CC(=O)N(CC(=O)N(CC(N)=O)Cc1ccccc1)Cc1ccccc1)Cc1ccccc1)Cc1ccccc1 [Peptoid 6, (NLysNpheNphe)2] (H-[Nlys][Nphe][Nphe][Nlys][Nphe][Nphe]-NH2)	100		

Reference: paper PMC6072100, “Exploring the links between peptoid antibacterial activity and toxicity” (MedChemComm, 2017)
